Here are results for 15 molecules from patent US20240208992A1, “MACROCYCLES AS CFTR MODULATORS” (Idorsia Pharmaceuticals Ltd, priority 2021, published 2024).

The experiment addresses human F508del-CFTR (Homo sapiens, UniProt P13569, DEL508-508). In words: F508del-CFTR cell surface expression (corrector activity), DiscoveRx ß-galactosidase complementation chemiluminescence assay in recombinant U2OS cell line.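 On all read-outs here: U2OS cells co-expressing ProLink-tagged F508del-CFTR and a membrane-anchored enzyme acceptor, where more surface CFTR restores β-galactosidase activity measured by chemiluminescence.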 Conditions: U2OS cell line, 16h compound incubation; for Emax: U2OS, in relation to the Emax of the corrector lumacaftor (=100%), arithmetic mean values; for EC50: EC50, F508del-CFTR cell surface expression, geomean values.

Sequence of human F508del-CFTR (P13569 with tags, fused parts or gaps DEL508-508): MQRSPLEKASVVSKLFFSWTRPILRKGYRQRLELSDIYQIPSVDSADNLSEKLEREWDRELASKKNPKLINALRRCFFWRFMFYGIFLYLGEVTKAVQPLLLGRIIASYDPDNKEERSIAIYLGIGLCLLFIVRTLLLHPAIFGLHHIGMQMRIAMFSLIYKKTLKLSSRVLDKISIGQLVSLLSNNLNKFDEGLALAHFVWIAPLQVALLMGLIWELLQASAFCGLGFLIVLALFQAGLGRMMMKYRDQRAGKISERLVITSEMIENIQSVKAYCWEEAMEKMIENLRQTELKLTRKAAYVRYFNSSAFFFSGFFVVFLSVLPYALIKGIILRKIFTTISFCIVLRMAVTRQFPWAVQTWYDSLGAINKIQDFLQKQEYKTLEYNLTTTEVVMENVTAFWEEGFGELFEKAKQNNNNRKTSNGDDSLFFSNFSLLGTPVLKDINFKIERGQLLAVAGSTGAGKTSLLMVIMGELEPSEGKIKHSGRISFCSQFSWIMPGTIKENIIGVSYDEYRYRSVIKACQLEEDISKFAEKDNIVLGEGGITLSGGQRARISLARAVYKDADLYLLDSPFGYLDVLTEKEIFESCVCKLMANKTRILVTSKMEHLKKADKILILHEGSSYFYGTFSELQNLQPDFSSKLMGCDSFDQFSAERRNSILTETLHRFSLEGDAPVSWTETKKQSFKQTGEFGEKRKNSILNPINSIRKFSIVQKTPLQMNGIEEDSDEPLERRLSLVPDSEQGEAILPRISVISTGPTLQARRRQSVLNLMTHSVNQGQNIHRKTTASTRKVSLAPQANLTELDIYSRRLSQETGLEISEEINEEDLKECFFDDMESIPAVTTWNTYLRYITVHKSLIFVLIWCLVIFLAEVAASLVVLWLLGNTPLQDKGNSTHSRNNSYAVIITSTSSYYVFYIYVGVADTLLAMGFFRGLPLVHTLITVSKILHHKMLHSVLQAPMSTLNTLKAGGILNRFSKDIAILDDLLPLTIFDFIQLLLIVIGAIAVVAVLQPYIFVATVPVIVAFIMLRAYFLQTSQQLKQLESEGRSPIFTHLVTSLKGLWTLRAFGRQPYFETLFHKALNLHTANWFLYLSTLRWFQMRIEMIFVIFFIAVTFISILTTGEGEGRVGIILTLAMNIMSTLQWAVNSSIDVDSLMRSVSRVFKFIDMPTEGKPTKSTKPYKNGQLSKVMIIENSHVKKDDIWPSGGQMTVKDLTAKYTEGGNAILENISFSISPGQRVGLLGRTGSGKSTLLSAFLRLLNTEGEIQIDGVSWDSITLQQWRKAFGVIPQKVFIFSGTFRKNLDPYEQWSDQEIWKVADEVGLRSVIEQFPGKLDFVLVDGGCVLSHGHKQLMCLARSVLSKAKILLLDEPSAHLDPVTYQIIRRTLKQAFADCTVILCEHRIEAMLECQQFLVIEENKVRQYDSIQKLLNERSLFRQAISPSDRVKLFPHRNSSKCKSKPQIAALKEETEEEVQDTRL

One may read the Emax as the maximal effect, on the per cent scale that the assay sets. Consider `COc1cccc(CCNC(=O)[C@@H]2CC(=O)N(C)[C@@H](CC(C)C)C(=O)N(C)CC(=O)N[C@H](Cc3ccccc3)COc3cc4c(cc3C(=O)N2)OCO4)c1OC` (racemic) [Example 151, (7R,13S,17RS)-7-benzyl-N-(2,3-dimethoxyphenethyl)-13-isobutyl-11,14-dimethyl-9,12,15,19-tetraoxo-6,7,8,9,10,11,12,13,14,15,16,17,18,19-tetradecahydro-[1,3]dioxolo[4′,5′:4,5]benzo[1,2-p][1]oxa[4,7,10,14]tetraazacycloheptadecine-17-carboxamide], for which the maximal effect (Emax) was 106%.

As for `COc1cc2c(cc1OC)C(=O)N[C@H](C(=O)NCCc1ccc3c(c1)CCO3)CC(=O)N(C)[C@@H](CC(C)C)C(=O)N(C)CC(=O)N[C@H](Cc1ccccc1)CO2` (racemic) [Example 152, (3R,9S,13RS)-3-benzyl-N-(2-(2,3-dihydrobenzofuran-5-yl)ethyl)-9-isobutyl-17,18-dimethoxy-7,10-dimethyl-5,8,11,15-tetraoxo-2,3,4,5,6,7,8,9,10,11,12,13,14,15-tetradecahydrobenzo[p][1]oxa[4,7,10,14]tetraazacycloheptadecine-13-carboxamide], the Emax was 133%. For orientation: EC50 means the midpoint of the concentration-response curve. Take `COc1cc2c(cc1OC)C(=O)N[C@H](C(=O)NCCc1ccc3c(c1)OCO3)CC(=O)N(C)[C@@H](CC(C)C)C(=O)N(CC[C@H]1CCCCO1)CC(=O)N[C@H](Cc1ccccc1)CO2` (racemic) [Example 155, (3R,9S,13S)-N-(2-(benzo[d][1,3]dioxol-5-yl)ethyl)-3-benzyl-9-isobutyl-17,18-dimethoxy-10-methyl-5,8,11,15-tetraoxo-7-(2-((RS)-tetrahydro-2H-pyran-2-yl)ethyl)-2,3,4,5,6,7,8,9,10,11,12,13,14,15-tetradecahydrobenzo[p][1]oxa[4,7,10,14]tetraazacycloheptadecine-13-carboxamide]: the EC50 stood at 260 nM and the Emax was 144%. Taken in the same sequence, the figures for `COc1cccc2c1C(=O)N[C@H](C(=O)NCCC1CCC(C)(C)CO1)CC(=O)N(C)[C@@H](CC(C)C)C(=O)N(CCC1CCCCC1)CC(=O)N[C@H](Cc1ccccc1)CO2` (mixture of isomers) [Example 157, (3R,9S,13S)-3-benzyl-7-(2-cyclohexylethyl)-N-((RS)-2-(5,5-dimethyltetrahydro-2H-pyran-2-yl)ethyl)-9-isobutyl-16-methoxy-10-methyl-5,8,11,15-tetraoxo-2,3,4,5,6,7,8,9,10,11,12,13,14,15-tetradecahydrobenzo[p][1]oxa[4,7,10,14]tetraazacycloheptadecine-13-carboxamide] were 395 nM and 121%.

Regarding `CC(C)C[C@H]1C(=O)N(C[C@H]2CCCCO2)CC(=O)N[C@H](Cc2ccccc2)COc2ccc3ccccc3c2C(=O)N[C@H](C(=O)NCCc2ccc3c(c2)OCO3)CC(=O)N1C` (racemic) [Example 162, (3RS,7S,13R)-N-(2-(benzo[d][1,3]dioxol-5-yl)ethyl)-13-benzyl-7-isobutyl-6-methyl-1,5,8,11-tetraoxo-9-(((R)-tetrahydro-2H-pyran-2-yl)methyl)-1,2,3,4,5,6,7,8,9,10,11,12,13,14-tetradecahydronaphtho[1,2-p][1]oxa[4,7,10,14]tetraazacycloheptadecine-3-carboxamide], the Emax came to 132%. As to `CC(C)C[C@H]1C(=O)N(C[C@@H]2CCCCO2)CC(=O)N[C@H](Cc2ccccc2)COc2ccc3ccccc3c2C(=O)N[C@H](C(=O)NCCc2ccc3c(c2)OCO3)CC(=O)N1C` (racemic) [Example 163, (3RS,7S,13R)-N-(2-(benzo[d][1,3]dioxol-5-yl)ethyl)-13-benzyl-7-isobutyl-6-methyl-1,5,8,11-tetraoxo-9-(((S)-tetrahydro-2H-pyran-2-yl)methyl)-1,2,3,4,5,6,7,8,9,10,11,12,13,14-tetradecahydronaphtho[1,2-p][1]oxa[4,7,10,14]tetraazacycloheptadecine-3-carboxamide], the concentration giving a half-maximal response (EC50) came to 377 nM and the Emax turned out to be 185%. With `COc1cccc(CCNC(=O)[C@@H]2CC(=O)N(C)[C@@H](CC(C)C)C(=O)N(C[C@H]3CCCCO3)CC(=O)N[C@H](Cc3ccccc3)COc3ccc4ccccc4c3C(=O)N2)c1` (racemic) [Example 164, (3RS,7S,13R)-13-benzyl-7-isobutyl-N-(3-methoxyphenethyl)-6-methyl-1,5,8,11-tetraoxo-9-(((R)-tetrahydro-2H-pyran-2-yl)methyl)-1,2,3,4,5,6,7,8,9,10,11,12,13,14-tetradecahydronaphtho[1,2-p][1]oxa[4,7,10,14]tetraazacycloheptadecine-3-carboxamide], the Emax stood at 167%.

With `COc1cccc(CCNC(=O)[C@@H]2CC(=O)N(C)[C@@H](CC(C)C)C(=O)N(C[C@@H]3CCCCO3)CC(=O)N[C@H](Cc3ccccc3)COc3ccc4ccccc4c3C(=O)N2)c1` (racemic) [Example 165, (3RS,7S,13R)-13-benzyl-7-isobutyl-N-(3-methoxyphenethyl)-6-methyl-1,5,8,11-tetraoxo-9-(((S)-tetrahydro-2H-pyran-2-yl)methyl)-1,2,3,4,5,6,7,8,9,10,11,12,13,14-tetradecahydronaphtho[1,2-p][1]oxa[4,7,10,14]tetraazacycloheptadecine-3-carboxamide], the concentration giving a half-maximal response (EC50) was 287 nM and the Emax turned out to be 149%.

For the molecule `COc1cccc2c1C(=O)N[C@H](C(=O)NCC[C@H]1CCCCO1)CC(=O)N(C)[C@@H](CC(C)C)C(=O)N(CCC1CCCCC1)CC(=O)N[C@H](Cc1ccccc1)CO2` (racemic) [Example 212, (3R,9S,13S)-3-benzyl-7-(2-cyclohexylethyl)-9-isobutyl-16-methoxy-10-methyl-5,8,11,15-tetraoxo-N-(2-((RS)-tetrahydro-2H-pyran-2-yl)ethyl)-2,3,4,5,6,7,8,9,10,11,12,13,14,15-tetradecahydrobenzo[p][1]oxa[4,7,10,14]tetraazacycloheptadecine-13-carboxamide], the EC50 came out at 292 nM and the maximum response (Emax) came to 130%. Taken in the same sequence, the figures for `COc1cccc2c1C(=O)N[C@H](C(=O)NCC[C@H]1COc3ccccc3O1)CC(=O)N(C)[C@@H](CC(C)C)C(=O)N(CCC1CCCCC1)CC(=O)N[C@H](Cc1ccccc1)CO2` (racemic) [Example 213, (3R,9S,13S)-3-benzyl-7-(2-cyclohexylethyl)-N-(2-((RS)-2,3-dihydrobenzo[b][1,4]dioxin-2-yl)ethyl)-9-isobutyl-16-methoxy-10-methyl-5,8,11,15-tetraoxo-2,3,4,5,6,7,8,9,10,11,12,13,14,15-tetradecahydrobenzo[p][1]oxa[4,7,10,14]tetraazacycloheptadecine-13-carboxamide] were 292 nM and 100%. For `COc1ccc(CCNC(=O)[C@@H]2CC(=O)N(C)[C@@H](CC(C)C)C(=O)N(CCC3CCCCC3)CC(=O)N[C@H](Cc3ccccc3)COc3cccc(OC)c3C(=O)N2)cc1` (racemic) [Example 219, (3R,9S,13RS)-3-benzyl-7-(2-cyclohexylethyl)-9-isobutyl-16-methoxy-N-(4-methoxyphenethyl)-10-methyl-5,8,11,15-tetraoxo-2,3,4,5,6,7,8,9,10,11,12,13,14,15-tetradecahydrobenzo[p][1]oxa[4,7,10,14]tetraazacycloheptadecine-13-carboxamide], in that order: 206 nM and 182%. As to `CN1C(=O)C[C@@H](C(=O)NCCc2ccc3c(c2)OCO3)NC(=O)c2c(ccc3ccccc23)OC[C@@H](Cc2ccccc2)NC(=O)CN(C[C@@H]2CCCCO2)C(=O)[C@@H]1CC1CCCC1` (racemic) [Example 284, (3RS,7S,13R)-N-(2-(benzo[d][1,3]dioxol-5-yl)ethyl)-13-benzyl-7-(cyclopentylmethyl)-6-methyl-1,5,8,11-tetraoxo-9-(((S)-tetrahydro-2H-pyran-2-yl)methyl)-1,2,3,4,5,6,7,8,9,10,11,12,13,14-tetradecahydronaphtho[1,2-p][1]oxa[4,7,10,14]tetraazacycloheptadecine-3-carboxamide], the maximal effect (Emax) was found to be 136%.

As for `CN1C(=O)C[C@@H](C(=O)NCCc2ccc3c(c2)OCO3)NC(=O)c2c(ccc3ccccc23)OC[C@@H](Cc2ccccc2)NC(=O)CN(C[C@@H]2CCCCO2)C(=O)[C@@H]1CC1CCCCC1` (racemic) [Example 285, (3RS,7S,13R)-N-(2-(benzo[d][1,3]dioxol-5-yl)ethyl)-13-benzyl-7-(cyclohexylmethyl)-6-methyl-1,5,8,11-tetraoxo-9-(((S)-tetrahydro-2H-pyran-2-yl)methyl)-1,2,3,4,5,6,7,8,9,10,11,12,13,14-tetradecahydronaphtho[1,2-p][1]oxa[4,7,10,14]tetraazacycloheptadecine-3-carboxamide], the Emax is 118%.

For `CN1C(=O)C[C@@H](C(=O)NCCc2ccc3c(c2)OCO3)NC(=O)c2c(ccc3ccccc23)OC[C@@H](Cc2ccccc2)NC(=O)CN(C[C@H]2CCCCO2)C(=O)[C@@H]1CC1CCCC1` (racemic) [Example 286, (3RS,7S,13R)-N-(2-(benzo[d][1,3]dioxol-5-yl)ethyl)-13-benzyl-7-(cyclopentylmethyl)-6-methyl-1,5,8,11-tetraoxo-9-(((R)-tetrahydro-2H-pyran-2-yl)methyl)-1,2,3,4,5,6,7,8,9,10,11,12,13,14-tetradecahydronaphtho[1,2-p][1]oxa[4,7,10,14]tetraazacycloheptadecine-3-carboxamide], the Emax worked out at 144%. Consider `CN1C(=O)C[C@@H](C(=O)NCCc2ccc3c(c2)OCO3)NC(=O)c2c(ccc3ccccc23)OC[C@@H](Cc2ccccc2)NC(=O)CN(C[C@H]2CCCCO2)C(=O)[C@@H]1CC1CCCCC1` (racemic) [Example 287, (3RS,7S,13R)-N-(2-(benzo[d][1,3]dioxol-5-yl)ethyl)-13-benzyl-7-(cyclohexylmethyl)-6-methyl-1,5,8,11-tetraoxo-9-(((R)-tetrahydro-2H-pyran-2-yl)methyl)-1,2,3,4,5,6,7,8,9,10,11,12,13,14-tetradecahydronaphtho[1,2-p][1]oxa[4,7,10,14]tetraazacycloheptadecine-3-carboxamide], for which the concentration giving a half-maximal response (EC50) is 207 nM and the Emax was determined as 154%.
